Test results: article PMC5994430, “Mitochondrial Delivery of Phenol Substructure Triggers Mitochondrial Depolarization and Apoptosis of Cancer Cells” (Frontiers in Pharmacology, 2018)

Columns and labels:
A549 cells = test: Cell viability (neutral red); assay type: cell-based, Human; conditions: A549; 0.1 μM, 72 h
Excerpt: (§1) Human colon cancer HT29 cells, colon-derived normal fibroblast CCD-18Co cells, lung cancer A549 cells, normal human bronchial epithelial (immortalized with adenovirus 12-SV40 virus hybrid Ad12SV40) BEAS-2B cells, breast cancer MDA-MB-231 cells, normal breast epithelial MCF10A cells, human osteosarcoma U-2OS cells were purchased from ATCC (Manassas, VA, United States). […] All subjects gave written informed consent in accordance with the Declaration of Helsinki. Cells were maintained in medium supplemented with 10% v/v fetal bovine serum, 1% v/v penicillin-streptomycin, 1% v/v L-glutamine. Morphological analysis was performed with a bright field microscope (Leica Microsystems, Wetzlar, Germany). At least 5 fields/experimental condition were examined.
(§2) LDH activity was measured in the extracellular medium and in the cell lysate: 50 μl of extracellular medium or 5 μl of cell lysate were incubated at 37°C with 5 mM NADH. The reaction was started by adding 20 mM pyruvic acid and was monitored for 6 min, measuring absorbance at 340 nm using a Synergy HT Multi-Detection Microplate Reader (Bio-Tek Instruments, Winoosky, MT, United States). […] Both intracellular and extracellular enzyme activities were expressed as μmol NADH oxidized/min/dish. The results were expressed as percentage of extracellular LDH versus total (intracellular plus extracellular) LDH. […] The absorbance of untreated cells was considered as 100% viability; the results were expressed as percentage of viable cells versus untreated cells. IC50 was calculated with the CompuSyn software^1.

BEAS-2B cells = test: Cell viability (neutral red); assay type: cell-based, Human; conditions: BEAS-2B; 0.1 μM, 72 h
Excerpt: as §1, §2

For `C[P+](c1ccccc1)(c1ccccc1)c1ccccc1.[Cl-]` [TPMP, methyltriphenylphosphonium chloride, reference compound], the cell viability (A549 cells) was “did not reduce viability” and the cell viability (BEAS-2B cells) was “did not reduce viability”.
